Like-named read-outs stand apart in the source and are kept apart here.
Tested on: CsgA gene expression (csgBAC promoter-GFP reporter) in E. coli UTI89
Assay: In vitro live cell fluorescent reporter assay of CsgA transcription (Reporter Assay)
Format: cell-based
Conditions: Escherichia coli
How it was run: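 Compounds at 0.14–100 μM (1% DMSO final) incubated 20 h at 27 °C in YESCA broth with UTI89 carrying a single-copy GFP reporter under the csgBAC intergenic promoter region, inoculum OD600 0.003. Fluorescence normalized to vehicle wells gave IC50 and 50%-of-vehicle concentration; OD600 reduction >10% flagged growth impact.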

[1] = read-out: Reporter Assay Abs IC50 (μM), median Abs IC50 in the CsgA reporter assay, N/A = maximum expression reduction is <50% of control
[2] = read-out: Reporter Assay Abs IC50, activity range, class symbol

Row | SMILES | IC50 [1] [µM] | IC50 [2] [µM]
1 | CC(C)N1CC(C(=O)O)n2c1c(-c1cccc(C(F)(F)F)c1)c(Cc1cccc3ccccc13)c(Cl)c2=O (stereo not drawn) [Compound 179, 6-chloro-1-isopropyl-7-(naphthalen-1-ylmethyl)-5-oxo-8-(3-(trifluoromethyl)phenyl)-1,2,3,5-tetrahydroimidazo[1,2-a]pyridine-3-carboxylic acid] | 1.4 | 1.3 to 4.5
2 | O=C(O)C1CN(CC2CCCCC2)c2c(-c3cccc(C(F)(F)F)c3)c(Cc3cccc4ccccc34)c(Cl)c(=O)n21 (stereo not drawn) [Compound 180, 6-chloro-1-(cyclohexylmethyl)-7-(naphthalen-1-ylmethyl)-5-oxo-8-(3-(trifluoromethyl)phenyl)-1,2,3,5-tetrahydroimidazo[1,2-a]pyridine-3-carboxylic acid] | 0.5 | < 1.3
3 | O=C(O)C1CN(Cc2ccccc2CO)c2c(-c3cccc(C(F)(F)F)c3)c(Cc3cccc4ccccc34)c(Cl)c(=O)n21 (stereo not drawn) [Compound 181, 6-chloro-1-(2-(hydroxymethyl)benzyl)-7-(naphthalen-1-ylmethyl)-5-oxo-8-(3-(trifluoromethyl)phenyl)-1,2,3,5-tetrahydroimidazo[1,2-a]pyridine-3-carboxylic acid] | 2 | 1.3 to 4.5
4 | O=C(O)C1CN(CC2CCOCC2)c2c(-c3cccc(C(F)(F)F)c3)c(Cc3cccc4ccccc34)c(Cl)c(=O)n21 (stereo not drawn) [Compound 182, 6-chloro-7-(naphthalen-1-ylmethyl)-5-oxo-1-((tetrahydro-2H-pyran-4-yl)methyl)-8-(3-(trifluoromethyl)phenyl)-1,2,3,5-tetrahydroimidazo[1,2-a]pyridine-3-carboxylic acid] | 2.5 | 1.3 to 4.5
5 | NC(=O)c1c(Cc2cccc3ccccc23)c(-c2cccc(C(F)(F)F)c2)c2n(c1=O)C(C(=O)O)CN(CCCO)S2(=O)=O (stereo not drawn) [Compound 184, 7-carbamoyl-2-(3-hydroxypropyl)-8-(naphthalen-1-ylmethyl)-6-oxo-9-(3-(trifluoromethyl)phenyl)-3,4-dihydro-2H,6H-pyrido[1,2-e][1,2,5]thiadiazine-4-carboxylic acid 1,1-dioxide] | 2.7 | 1.3 to 4.5
6 | O=C(O)C1CN(Cc2ccccc2)c2c(-c3cccc(C(F)(F)F)c3)c(Cc3cccc4ccccc34)cc(=O)n21 (stereo not drawn) [Compound 187, 1-benzyl-7-(naphthalen-1-ylmethyl)-5-oxo-8-(3-(trifluoromethyl)phenyl)-1,2,3,5-tetrahydroimidazo[1,2-a]pyridine-3-carboxylic acid] | 19 | > 10
7 | O=C(O)C1CN(CCCCCCCN2CC(C(=O)O)n3c2c(-c2cccc(C(F)(F)F)c2)c(Cc2cccc4ccccc24)c(Cl)c3=O)c2c(-c3cccc(C(F)(F)F)c3)c(Cc3cccc4ccccc34)c(Cl)c(=O)n21 (stereo not drawn) [Compound 188, 1,1′-(heptane-1,7-diyl)bis(6-chloro-7-(naphthalen-1-ylmethyl)-5-oxo-8-(3-(trifluoromethyl)phenyl)-1,2,3,5-tetrahydroimidazo[1,2-a]pyridine-3-carboxylic acid)] | 0.8 | < 1.3
8 | COc1ccc(CN2CC(C(=O)O)n3c2c(-c2cccc(C(F)(F)F)c2)c(Cc2cccc4ccccc24)c(Cl)c3=O)cc1 (stereo not drawn) [Compound 192, 6-chloro-1-(4-methoxybenzyl)-7-(naphthalen-1-ylmethyl)-5-oxo-8-(3-(trifluoromethyl)phenyl)-1,2,3,5-tetrahydroimidazo[1,2-a]pyridine-3-carboxylic acid] | 2.5 | 1.3 to 4.5
9 | O=C(O)C1CN(CCCCCCN2CC(C(=O)O)n3c2c(-c2cccc(C(F)(F)F)c2)c(Cc2cccc4ccccc24)c(Cl)c3=O)c2c(-c3cccc(C(F)(F)F)c3)c(Cc3cccc4ccccc34)c(Cl)c(=O)n21 (stereo not drawn) [Compound 193, 1,1′-(hexane-1,6-diyl)bis(6-chloro-7-(naphthalen-1-ylmethyl)-5-oxo-8-(3-(trifluoromethyl)phenyl)-1,2,3,5-tetrahydroimidazo[1,2-a]pyridine-3-carboxylic acid)] | 0.6 | < 1.3
10 | O=C(O)C1CN(Cc2ccccc2)c2c(-c3cccc(C(F)(F)F)c3)c(Cc3cccc4ccccc34)c(F)c(=O)n21 (stereo not drawn) [Compound 194, 1-benzyl-6-fluoro-7-(naphthalen-1-ylmethyl)-5-oxo-8-(3-(trifluoromethyl)phenyl)-1,2,3,5-tetrahydroimidazo[1,2-a]pyridine-3-carboxylic acid] | 1.4 | 1.3 to 4.5
11 | O=C(O)C1CN(Cc2cccc(O)c2)c2c(-c3cccc(C(F)(F)F)c3)c(Cc3cccc4ccccc34)c(Cl)c(=O)n21 (stereo not drawn) [Compound 196, 6-chloro-1-(3-hydroxybenzyl)-7-(naphthalen-1-ylmethyl)-5-oxo-8-(3-(trifluoromethyl)phenyl)-1,2,3,5-tetrahydroimidazo[1,2-a]pyridine-3-carboxylic acid] | 2.8 | 1.3 to 4.5
12 | O=C(O)C1CN(CCCO)c2c(-c3cccc(C(F)(F)F)c3)c(Cc3cccc4ccccc34)c(Cl)c(=O)n21 (stereo not drawn) [Compound 197, 6-chloro-1-(3-hydroxypropyl)-7-(naphthalen-1-ylmethyl)-5-oxo-8-(3-(trifluoromethyl)phenyl)-1,2,3,5-tetrahydroimidazo[1,2-a]pyridine-3-carboxylic acid] | 19.3 | > 10
13 | O=C(O)C1CN(Cc2ccccc2)c2c(-c3cccc(Br)c3)c(Cc3cccc4ccccc34)c(Cl)c(=O)n21 (stereo not drawn) [Compound 198, 1-benzyl-8-(3-bromophenyl)-6-chloro-7-(naphthalen-1-ylmethyl)-5-oxo-1,2,3,5-tetrahydroimidazo[1,2-a]pyridine-3-carboxylic acid] | 5 | 4.6 to 10
14 | O=C(O)C1CN(CCCCCO)c2c(-c3cccc(C(F)(F)F)c3)c(Cc3cccc4ccccc34)c(Cl)c(=O)n21 (stereo not drawn) [Compound 199, 6-chloro-1-(5-hydroxypentyl)-7-(naphthalen-1-ylmethyl)-5-oxo-8-(3-(trifluoromethyl)phenyl)-1,2,3,5-tetrahydroimidazo[1,2-a]pyridine-3-carboxylic acid] | 6.9 | 4.6 to 10
15 | O=C(O)C1CN(Cc2cccc3ccccc23)c2c(-c3cccc(C(F)(F)F)c3)c(Cc3cccc4ccccc34)c(Cl)c(=O)n21 (stereo not drawn) [Compound 200, 6-chloro-1,7-bis(naphthalen-1-ylmethyl)-5-oxo-8-(3-(trifluoromethyl)phenyl)-1,2,3,5-tetrahydroimidazo[1,2-a]pyridine-3-carboxylic acid] | 1.3 | 1.3 to 4.5
16 | O=C(O)C1CN(Cc2ccc(-c3ccccc3)cc2)c2c(-c3cccc(C(F)(F)F)c3)c(Cc3cccc4ccccc34)c(Cl)c(=O)n21 (stereo not drawn) [Compound 202, 1-([1,1′-biphenyl]-4-ylmethyl)-6-chloro-7-(naphthalen-1-ylmethyl)-5-oxo-8-(3-(trifluoromethyl)phenyl)-1,2,3,5-tetrahydroimidazo[1,2-a]pyridine-3-carboxylic acid] | 0.8 | < 1.3
17 | O=C(O)C1CN(CCC2CCCCC2)c2c(-c3cccc(C(F)(F)F)c3)c(Cc3cccc4ccccc34)c(Cl)c(=O)n21 (stereo not drawn) [Compound 207, 6-chloro-1-(2-cyclohexylethyl)-7-(naphthalen-1-ylmethyl)-5-oxo-8-(3-(trifluoromethyl)phenyl)-1,2,3,5-tetrahydroimidazo[1,2-a]pyridine-3-carboxylic acid] | 0.7 | < 1.3
18 | CC(C)(C)c1ccc(Cc2c(-c3cccc(C(F)(F)F)c3)c3n(c(=O)c2Cl)C(C(=O)O)CN3Cc2ccccc2)cc1 (stereo not drawn) [Compound 216, 1-benzyl-7-(4-(tert-butyl)benzyl)-6-chloro-5-oxo-8-(3-(trifluoromethyl)phenyl)-1,2,3,5-tetrahydroimidazo[1,2-a]pyridine-3-carboxylic acid] | 0.7 | < 1.3

— patent US20230131899A1, “INHIBITORS OF MICROBIALLY INDUCED AMYLOID” (Axial Therapeutics, Inc., priority 2020, published 2023)
